Results taken from PubChem BioAssay (NCI).
Values joined by “and” are separate entries in the source; they are usually repeats but may differ in a detail not shown here. Identical values can stand only once.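 Exposure lasted 48 hours, with cells grown in 96-well plates and compounds tested at five concentrations. GI50: concentration for 50% inhibition of growth. TGI marks complete inhibition of growth.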

Assays:
Experiment in all cases: NCI-60 cell line screen, 48 h
OVCAR-5 ovarian = tested on: OVCAR-5 ovarian
UACC-62 melanoma = tested on: UACC-62 melanoma
U251 CNS = tested on: U251 CNS
K-562 leukemia = tested on: K-562 leukemia
MOLT-4 leukemia = tested on: MOLT-4 leukemia
HL-60(TB) leukemia = tested on: HL-60(TB) leukemia
M14 melanoma = tested on: M14 melanoma
IGROV1 ovarian = tested on: IGROV1 ovarian
SF-268 CNS = tested on: SF-268 CNS
786-0 renal = tested on: 786-0 renal
A498 renal = tested on: A498 renal

SMILES	TGI (OVCAR-5 ovarian) [µM]	TGI (UACC-62 melanoma) [µM]	TGI (U251 CNS) [µM]	TGI (K-562 leukemia) [µM]	TGI (MOLT-4 leukemia) [µM]	TGI (HL-60(TB) leukemia) [µM]	TGI (M14 melanoma) [µM]	TGI (IGROV1 ovarian) [µM]	TGI (SF-268 CNS) [µM]	TGI (786-0 renal) [µM]	TGI (A498 renal) [µM]	GI50 (OVCAR-5 ovarian)
O=C(c1ccco1)N(C(=S)N1CCN(c2ccccn2)CC1)c1ccccc1	> 100	> 100	> 100	> 100	> 100	> 100	> 100	> 100	> 100	> 100		
C/C(O[Si](C(C)C)(C(C)C)C(C)C)=C(\C)C(=O)N(C)c1ccccc1Cl	> 100		> 100		> 100		> 100	> 100	> 100	> 100	> 100	
O=[N+]([O-])C(C(Cl)=C(Cl)Cl)=C(n1cncn1)n1cncn1	22.9	> 100	> 87.1	> 100	> 100		> 74.8	39.7	35.3	45.4	> 100	
O=C1/C(=C/c2ccccc2)CCCc2ccccc21	42.2	28.6	29.1	49.4	48.1	35.5	41.4	38.8	32.6	31.3		
O=P1(Cc2ccccc2)c2ccccc2-c2ccccc21	54.7	13.7	70.5	> 100	30.5		20.2	19.3	> 100	> 100	38.1	
COCOc1cc(OC)ccc1C/C(=N/O)C(=O)OC	> 100	> 100	> 100	> 100	> 100	> 100	> 100	> 100	> 100	> 100		
COC(=O)CC(C(C(C)=O)C(=O)OCc1ccccc1)N1C(=O)OC(c2ccccc2)C1c1ccccc1 (centres undefined)	> 100	> 100	> 100	> 100	> 100	> 100		> 100	> 100	> 100		> 100 µM and 34.3 µM
O=C(O)c1ccc(Nc2nc3nn(Cc4ccccc4)cc3c(=O)s2)cc1	> 100		> 100	> 100	> 100	> 100	> 100	> 100	> 100	> 100		
O=C(Nc1ccc2cc3ccccc3cc2c1)c1cc2c(cc1Cl)Sc1nccn1S2(=O)=O	93.5	> 100	> 100	> 100	> 100	46.9	> 100	> 100	97.6	30		
CCOC(=O)/C=C(/C(=O)OCC)n1ccc(=O)n(Cc2cnnn2CCCCOC(C)=O)c1=O	> 100	> 100	> 100	> 100	> 100			> 100	> 100	> 100		
C=CCCC(=O)C(=[N+]=[N-])C(=O)CCC(=O)c1ccccc1	> 10	> 10	> 10	> 10	> 10		> 10	> 10	> 10	> 10	> 10	
COc1cc2c(c(OC)c1OC)-c1ccc(SC)c(=O)cc1C(CC(=O)Oc1cccc(F)c1)C2 (centres undefined)	> 100	1.07	0.85	> 52.4	> 55.2	0.6		> 100	> 72.5	> 100		
CC(=O)n1nc(-c2ccc3ccccc3c2)nc1C	> 100	> 100		> 100	> 100	> 100	> 100	> 100	> 100	> 100		
Cc1ccc(SCC(OCn2cnc3c(Cl)nc(N)nc32)[C@H](C)F)cc1 (some centres undefined)	> 100	> 100	> 100		> 100	96.8	> 100	> 100	> 100	> 100		
OC12CCC3(O)c4ccccc4C3C1c1ccccc12 (centres undefined)		> 100	> 100	> 100	> 100	> 100	> 100		> 100	> 100		
CC12CCC(CC1(Cl)Cl)C2 (centres undefined)	> 100	> 100	> 100	> 100	> 100	> 100	> 100	> 100	> 100	> 100		
Cc1ccc(/S(Cc2ccccc2)=N\S(=O)(=O)c2ccc(C)cc2)cc1 (centres undefined)	> 100		> 100	> 100		> 100	> 100		> 100	> 100		
C[n+]1cn(-c2nc3ccccc3nc2[N-]S(=O)(=O)c2ccccc2)c2ccccc21	> 100	> 100	> 100	> 100	> 100	> 100	> 100	> 100	> 100	> 100		
CCCCCCCCCC(=O)NC(Cc1ccc(O)cc1)C(=O)NCCCNCCCCNCCCNC(=O)[C@@H](N)CCCN=C(N)N (some centres undefined)				> 100	> 100	48.1	> 100	74.5	> 100	> 100		
